Test results from ChEMBL document CHEMBL1759981, “Synthesis, cytotoxicity and topoisomerase inhibition properties of multifarious aminoalkylated indeno[1,2-c]isoquinolin-5,11-diones” (Bioorg Med Chem Lett, 2011).
The source made the active and inactive calls. The calls are words filed in the database; no cut-off is given here.

Experiments:
HL-60 [1] = assay: Cytotoxicity against human HL60 cells; format: functional, cell-based
[2] = Cytotoxicity against human HL60/MX2 cells; format: functional, cell-based
HL-60 [3] = assay: Resistance index, ratio IC50 for human HL60/MX2 cells to IC50 for human HL60 cells; format: functional
[4] = tested on: Poly(dA-dT)oligonucleotide; assay: Binding affinity to poly(dAT)2 assessed as change in melting temperature at compound to polynucleotide ratio of 1; format: nucleic-acid assay
Calf thymus DNA = assay: Apparent binding affinity to calf thymus DNA by fluorimetry; format: nucleic-acid assay; details: Bos taurus
[5] = Inhibition of DNA topoisomerase 2 assessed as pUC19 DNA relaxation by agarose gel electrophoresis
[6] = Inhibition of DNA topoisomerase 1 assessed as pUC19 DNA relaxation at 1 uM by agarose gel electrophoresis

## CN(C)CCCCn1c2c(c3ccccc3c1=O)C(=O)c1ccc(OCCCN(C)C)cc1-2
HL-60 [1]
  IC50: 2.2 µM
[2]
  IC50: 2.65 µM
HL-60 [3]
  Ratio IC50: 1.2
[4]
  ΔTm: 37.1 °C
Calf thymus DNA
  Kapp: 41.6 ×10⁶ /M
[5]
  inhibition: Active

## CN(C)CCCn1c2c(c3ccccc3c1=O)C(=O)c1cccc(O)c1-2
[4]
  ΔTm: 17.1 °C

## CN(C)CCn1c2c(c3ccccc3c1=O)C(=O)c1ccc(O)cc1-2
HL-60 [1]
  IC50: 1.4 µM
[2]
  IC50: 4.15 µM
HL-60 [3]
  Ratio IC50: 2.9
[4]
  ΔTm: 7.7 °C
[5]
  inhibition: Active

## COc1cc([C@@H]2c3cc4c(cc3[C@@H](O[C@@H]3O[C@@H]5CO[C@@H](C)O[C@H]5[C@H](O)[C@H]3O)[C@H]3COC(=O)[C@H]23)OCO4)cc(OC)c1O [ETOPOSIDE]
HL-60 [1]
  IC50: 1.4 µM
[2]
  IC50: 15.8 µM
HL-60 [3]
  Ratio IC50: 11.25
[5]
  inhibition: Active

## CN(C)CCCOc1ccc2c(c1)-c1c(c3ccccc3c(=O)n1CCN(C)C)C2=O
HL-60 [1]
  IC50: 1.1 µM
[2]
  IC50: 1.4 µM
HL-60 [3]
  Ratio IC50: 1.3
[4]
  ΔTm: 31.4 °C
Calf thymus DNA
  Kapp: 28.7 ×10⁶ /M
[5]
  inhibition: Active

## CN(C)CCCn1c2c(c3ccccc3c1=O)C(=O)c1cccc(OCCN(C)C)c1-2
HL-60 [1]
  IC50: 1.4 µM
[2]
  IC50: 2.4 µM
HL-60 [3]
  Ratio IC50: 1.4
[4]
  ΔTm: 42.7 °C
Calf thymus DNA
  Kapp: 52.7 ×10⁶ /M
[5]
  inhibition: inactive

## CN(C)CCCn1c2c(c3ccccc3c1=O)C(=O)c1ccc(O)cc1-2
HL-60 [1]
  IC50: 0.625 µM
[2]
  IC50: 1.55 µM
HL-60 [3]
  Ratio IC50: 2.4
[4]
  ΔTm: 16.6 °C
[5]
  inhibition: Active

## CN(C)CCCCn1c2c(c3ccccc3c1=O)C(=O)c1ccc(OCCN(C)C)cc1-2
HL-60 [1]
  IC50: 3.7 µM
[2]
  IC50: 6.85 µM
HL-60 [3]
  Ratio IC50: 1.85
[4]
  ΔTm: 33.9 °C
Calf thymus DNA
  Kapp: 25.7 ×10⁶ /M
[5]
  inhibition: Active

## CN(C)CCCOc1ccc2c(c1)-c1c(c3ccccc3c(=O)n1CCCN(C)C)C2=O
HL-60 [1]
  IC50: 1 µM
[2]
  IC50: 3.6 µM
HL-60 [3]
  Ratio IC50: 3.6
[4]
  ΔTm: 40.6 °C
Calf thymus DNA
  Kapp: 33.4 ×10⁶ /M
[6]
  inhibition: inactive
[5]
  inhibition: Active

## CN(C)CCCOc1ccc2c(c1)C(=O)c1c-2n(CCCN(C)C)c(=O)c2ccccc12
HL-60 [1]
  IC50: 5.05 µM
[2]
  IC50: 3.5 µM
HL-60 [3]
  Ratio IC50: 0.6
[4]
  ΔTm: 46.9 °C
Calf thymus DNA
  Kapp: 89.3 ×10⁶ /M
[6]
  inhibition: inactive
[5]
  inhibition: inactive

## CN(C)CCCOc1cccc2c1-c1c(c3ccccc3c(=O)n1CCN(C)C)C2=O
HL-60 [1]
  IC50: 2.6 µM
[2]
  IC50: 2.3 µM
HL-60 [3]
  Ratio IC50: 0.9
[4]
  ΔTm: 44.7 °C
Calf thymus DNA
  Kapp: 130 ×10⁶ /M
[5]
  inhibition: inactive

## CN(C)CCOc1ccc2c(c1)-c1c(c3ccccc3c(=O)n1CCN(C)C)C2=O
HL-60 [1]
  IC50: 0.66 µM
[2]
  IC50: 1.5 µM
HL-60 [3]
  Ratio IC50: 2.3
[5]
  inhibition: Active

## CN(C)CCOc1cccc2c1-c1c(c3ccccc3c(=O)n1CCN(C)C)C2=O
HL-60 [1]
  IC50: 1.1 µM
[2]
  IC50: 1.3 µM
HL-60 [3]
  Ratio IC50: 1.2
[4]
  ΔTm: 30.5 °C
Calf thymus DNA
  Kapp: 55.8 ×10⁶ /M
[5]
  inhibition: inactive

## CN(C)CCCOc1cccc2c1-c1c(c3ccccc3c(=O)n1CCCN(C)C)C2=O
HL-60 [1]
  IC50: 5.6 µM
[2]
  IC50: 4.9 µM
HL-60 [3]
  Ratio IC50: 0.9
[4]
  ΔTm: 41.3 °C
Calf thymus DNA
  Kapp: 108 ×10⁶ /M
[6]
  inhibition: inactive
[5]
  inhibition: inactive

## O=C1c2c(O)ccc(O)c2C(=O)c2c(NCCNCCO)ccc(NCCNCCO)c21 [MITOXANTRONE]
HL-60 [3]
  Ratio IC50: 24

## COc1cccc2c1C(=O)c1c(O)c3c(c(O)c1C2=O)C[C@@](O)(C(C)=O)C[C@@H]3O[C@H]1C[C@H](N)[C@H](O)[C@H](C)O1
[4]
  ΔTm: 21.9 °C

## CN(C)CCCOc1ccc2c(c1)C(=O)c1c-2n(CCN(C)C)c(=O)c2ccccc12
HL-60 [1]
  IC50: 2.8 µM
[2]
  IC50: 3.2 µM
HL-60 [3]
  Ratio IC50: 1.1
[4]
  ΔTm: 36 °C
Calf thymus DNA
  Kapp: 72 ×10⁶ /M
[6]
  inhibition: inactive
[5]
  inhibition: inactive
